Experimental data published in PMC7265341, “Quantifying CDK inhibitor selectivity in live cells” (Nature Communications, 2020).
Like-named read-outs stand apart in the source and are kept apart here.

Columns and labels:
[1] = molecular target: CDK8/Cyclin C (Homo sapiens, UniProt P49336); assay: NanoBRET live-cell target engagement, NanoLuc-CDK8/Cyclin C in HEK-293; format: binding; settings: CDK8/C, read-out: Inhibition at 10µM (%)
[2] = molecular target: CDK2/Cyclin E1 (Homo sapiens, UniProt P24941); assay: NanoBRET live-cell target engagement, CDK2-NanoLuc/Cyclin E1 in HEK-293; format: binding; settings: CDK2/E1, read-out: Inhibition at 10µM (%)
[3] = molecular target: T1, CDK11A/Cyclin L2 (Homo sapiens, UniProt Q9UQ88); assay: NanoBRET live-cell target engagement, CDK11A-NanoLuc/Cyclin L2 in HEK-293; format: binding; settings: CDK11a/L2, read-out: Inhibition at 10µM (%)
T1 sequence (Q9UQ88 1-783): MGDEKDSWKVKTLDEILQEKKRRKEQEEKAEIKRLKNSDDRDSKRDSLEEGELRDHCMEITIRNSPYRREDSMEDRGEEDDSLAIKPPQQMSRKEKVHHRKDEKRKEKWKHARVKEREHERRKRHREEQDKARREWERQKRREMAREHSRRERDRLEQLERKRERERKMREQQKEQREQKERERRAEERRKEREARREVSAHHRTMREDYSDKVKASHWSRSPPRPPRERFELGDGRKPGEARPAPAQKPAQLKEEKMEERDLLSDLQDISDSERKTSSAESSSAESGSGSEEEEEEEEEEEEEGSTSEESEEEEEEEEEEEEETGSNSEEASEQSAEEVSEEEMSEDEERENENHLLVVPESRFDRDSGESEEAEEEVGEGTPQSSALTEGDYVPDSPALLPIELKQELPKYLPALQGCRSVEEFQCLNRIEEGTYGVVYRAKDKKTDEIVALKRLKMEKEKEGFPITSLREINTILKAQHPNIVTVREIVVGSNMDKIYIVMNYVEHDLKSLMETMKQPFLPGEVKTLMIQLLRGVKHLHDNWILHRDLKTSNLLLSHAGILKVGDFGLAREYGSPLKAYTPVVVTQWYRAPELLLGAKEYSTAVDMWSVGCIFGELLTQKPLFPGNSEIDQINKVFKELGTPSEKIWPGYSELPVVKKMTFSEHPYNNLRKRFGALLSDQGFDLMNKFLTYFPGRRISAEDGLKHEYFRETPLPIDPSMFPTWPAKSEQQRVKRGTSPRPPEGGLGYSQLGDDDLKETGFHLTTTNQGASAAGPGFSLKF

[4] = molecular target: CDK14/Cyclin Y (Homo sapiens, UniProt O94921); assay: NanoBRET live-cell target engagement, CDK14-NanoLuc/Cyclin Y in HEK-293; format: binding; settings: CDK14/Y; for IC50: read-out: IC50; for inhibition at 10 µM: read-out: Inhibition at 10µM (%)
[5] = molecular target: CDK13/Cyclin K (Homo sapiens, UniProt Q14004); assay: NanoBRET live-cell target engagement, CDK13-NanoLuc/Cyclin K in HEK-293; format: binding; settings: CDK13/K, read-out: Inhibition at 10µM (%)
[6] = molecular target: CDK5/CDK5R1 (Homo sapiens, UniProt Q00535); assay: NanoBRET live-cell target engagement, CDK5-NanoLuc/CDK5R1 in HEK-293; format: binding; settings: CDK5/CDK5R1, read-out: Inhibition at 10µM (%)
[7] = molecular target: CDK11B/Cyclin L2 (Homo sapiens, UniProt P21127); assay: NanoBRET live-cell target engagement, CDK11B-NanoLuc/Cyclin L2 in HEK-293; format: binding; settings: CDK11b/L2, read-out: Inhibition at 10µM (%)
[8] = molecular target: CDK20/Cyclin H (Homo sapiens, UniProt Q8IZL9); assay: NanoBRET live-cell target engagement, NanoLuc-CDK20/Cyclin H in HEK-293; format: binding; settings: CDK20/H, read-out: Inhibition at 10µM (%)
[9] = molecular target: CDK4/Cyclin D1 (Homo sapiens, UniProt P11802); assay: NanoBRET live-cell target engagement, NanoLuc-CDK4/Cyclin D1 in HEK-293; format: binding; settings: CDK4/D1; for IC50: read-out: IC50; for inhibition at 10 µM: read-out: Inhibition at 10µM (%)
[10] = molecular target: CDK1/Cyclin E1 (Homo sapiens, UniProt P06493); assay: NanoBRET live-cell target engagement, CDK1-NanoLuc/Cyclin E1 in HEK-293; format: binding; settings: CDK1/E1, read-out: Inhibition at 10µM (%)
CDK1/Cyclin E1, sequence (P06493 whole entry): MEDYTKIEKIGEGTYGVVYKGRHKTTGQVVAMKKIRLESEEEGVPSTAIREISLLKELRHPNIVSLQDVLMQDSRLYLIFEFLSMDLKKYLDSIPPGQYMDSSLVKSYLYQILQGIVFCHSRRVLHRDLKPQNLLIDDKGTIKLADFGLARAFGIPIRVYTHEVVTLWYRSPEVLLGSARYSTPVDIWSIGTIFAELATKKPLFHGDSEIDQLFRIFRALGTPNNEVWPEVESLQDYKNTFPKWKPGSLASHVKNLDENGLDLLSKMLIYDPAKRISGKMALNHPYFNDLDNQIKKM
CDK1/Cyclin E1, sequence (P24864 whole entry partner): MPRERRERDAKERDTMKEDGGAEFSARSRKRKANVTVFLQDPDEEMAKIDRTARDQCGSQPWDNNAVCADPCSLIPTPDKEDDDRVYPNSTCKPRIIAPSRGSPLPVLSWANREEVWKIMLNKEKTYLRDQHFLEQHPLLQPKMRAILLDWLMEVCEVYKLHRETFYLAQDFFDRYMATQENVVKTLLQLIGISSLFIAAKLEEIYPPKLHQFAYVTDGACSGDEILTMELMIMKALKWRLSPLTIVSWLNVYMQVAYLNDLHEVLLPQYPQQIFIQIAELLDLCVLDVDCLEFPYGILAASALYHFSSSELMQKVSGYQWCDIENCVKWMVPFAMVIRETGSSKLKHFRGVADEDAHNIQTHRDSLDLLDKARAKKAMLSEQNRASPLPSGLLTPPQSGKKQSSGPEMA

[11] = molecular target: CDK7 (Homo sapiens, UniProt P50613); assay: NanoBRET live-cell target engagement, NanoLuc-CDK7 in HEK-293; format: binding; settings: CDK7; for IC50: read-out: IC50; for inhibition at 10 µM: read-out: Inhibition at 10µM (%)
CDK7, sequence (P50613 whole entry): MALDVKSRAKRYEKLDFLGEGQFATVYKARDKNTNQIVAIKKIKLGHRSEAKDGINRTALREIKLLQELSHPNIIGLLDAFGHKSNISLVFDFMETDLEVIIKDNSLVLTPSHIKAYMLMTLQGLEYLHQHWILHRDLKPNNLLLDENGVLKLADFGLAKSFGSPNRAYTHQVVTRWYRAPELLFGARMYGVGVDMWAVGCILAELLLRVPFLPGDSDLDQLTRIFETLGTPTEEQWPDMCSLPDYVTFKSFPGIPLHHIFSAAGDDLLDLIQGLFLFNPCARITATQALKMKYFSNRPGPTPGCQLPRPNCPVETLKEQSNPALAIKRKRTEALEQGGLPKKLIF

[12] = molecular target: CDK3/Cyclin E1 (Homo sapiens, UniProt Q00526); assay: NanoBRET live-cell target engagement, CDK3-NanoLuc/Cyclin E1 in HEK-293; format: binding; settings: CDK3/E1, read-out: Inhibition at 10µM (%)
[13] = molecular target: CDK17/Cyclin Y (Homo sapiens, UniProt Q00537); assay: NanoBRET live-cell target engagement, CDK17-NanoLuc/Cyclin Y in HEK-293; format: binding; settings: CDK17/Y; for IC50: read-out: IC50; for inhibition at 10 µM: read-out: Inhibition at 10µM (%)
[14] = molecular target: CDK16/Cyclin Y (Homo sapiens, UniProt Q00536); assay: NanoBRET live-cell target engagement, CDK16-NanoLuc/Cyclin Y in HEK-293; format: binding; settings: CDK16/Y; for IC50: read-out: IC50; for inhibition at 10 µM: read-out: Inhibition at 10µM (%)
CDK16/Cyclin Y, sequence (Q00536 whole entry): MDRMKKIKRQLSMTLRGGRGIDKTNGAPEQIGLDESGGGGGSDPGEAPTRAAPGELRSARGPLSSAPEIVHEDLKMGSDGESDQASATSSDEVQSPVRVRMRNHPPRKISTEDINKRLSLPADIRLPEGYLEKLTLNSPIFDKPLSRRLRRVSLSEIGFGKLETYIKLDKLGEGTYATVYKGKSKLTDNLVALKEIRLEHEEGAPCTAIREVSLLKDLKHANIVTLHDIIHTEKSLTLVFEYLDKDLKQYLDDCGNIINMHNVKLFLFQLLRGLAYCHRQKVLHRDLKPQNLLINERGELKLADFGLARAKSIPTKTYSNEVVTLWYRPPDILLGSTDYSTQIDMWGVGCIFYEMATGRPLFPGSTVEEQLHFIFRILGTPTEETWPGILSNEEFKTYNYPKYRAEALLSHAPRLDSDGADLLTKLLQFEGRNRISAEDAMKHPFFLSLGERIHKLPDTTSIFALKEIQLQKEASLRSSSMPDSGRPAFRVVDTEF
CDK16/Cyclin Y, sequence (Q8ND76 whole entry partner): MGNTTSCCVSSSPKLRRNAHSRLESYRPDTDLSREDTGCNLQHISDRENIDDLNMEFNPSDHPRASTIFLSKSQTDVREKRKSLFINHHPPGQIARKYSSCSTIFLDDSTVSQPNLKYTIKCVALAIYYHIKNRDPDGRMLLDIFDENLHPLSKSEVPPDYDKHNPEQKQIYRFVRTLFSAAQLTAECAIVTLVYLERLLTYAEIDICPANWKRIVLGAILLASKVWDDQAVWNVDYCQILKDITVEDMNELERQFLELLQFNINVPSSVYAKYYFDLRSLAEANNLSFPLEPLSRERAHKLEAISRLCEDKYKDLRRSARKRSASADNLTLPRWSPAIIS

[15] = molecular target: CDK12/Cyclin K (Homo sapiens, UniProt Q9NYV4); assay: NanoBRET live-cell target engagement, CDK12-NanoLuc/Cyclin K in HEK-293; format: binding; settings: CDK12/K, read-out: Inhibition at 10µM (%)
CDK12/Cyclin K, sequence (Q9NYV4 1-1481 isoform Q9NYV4-2): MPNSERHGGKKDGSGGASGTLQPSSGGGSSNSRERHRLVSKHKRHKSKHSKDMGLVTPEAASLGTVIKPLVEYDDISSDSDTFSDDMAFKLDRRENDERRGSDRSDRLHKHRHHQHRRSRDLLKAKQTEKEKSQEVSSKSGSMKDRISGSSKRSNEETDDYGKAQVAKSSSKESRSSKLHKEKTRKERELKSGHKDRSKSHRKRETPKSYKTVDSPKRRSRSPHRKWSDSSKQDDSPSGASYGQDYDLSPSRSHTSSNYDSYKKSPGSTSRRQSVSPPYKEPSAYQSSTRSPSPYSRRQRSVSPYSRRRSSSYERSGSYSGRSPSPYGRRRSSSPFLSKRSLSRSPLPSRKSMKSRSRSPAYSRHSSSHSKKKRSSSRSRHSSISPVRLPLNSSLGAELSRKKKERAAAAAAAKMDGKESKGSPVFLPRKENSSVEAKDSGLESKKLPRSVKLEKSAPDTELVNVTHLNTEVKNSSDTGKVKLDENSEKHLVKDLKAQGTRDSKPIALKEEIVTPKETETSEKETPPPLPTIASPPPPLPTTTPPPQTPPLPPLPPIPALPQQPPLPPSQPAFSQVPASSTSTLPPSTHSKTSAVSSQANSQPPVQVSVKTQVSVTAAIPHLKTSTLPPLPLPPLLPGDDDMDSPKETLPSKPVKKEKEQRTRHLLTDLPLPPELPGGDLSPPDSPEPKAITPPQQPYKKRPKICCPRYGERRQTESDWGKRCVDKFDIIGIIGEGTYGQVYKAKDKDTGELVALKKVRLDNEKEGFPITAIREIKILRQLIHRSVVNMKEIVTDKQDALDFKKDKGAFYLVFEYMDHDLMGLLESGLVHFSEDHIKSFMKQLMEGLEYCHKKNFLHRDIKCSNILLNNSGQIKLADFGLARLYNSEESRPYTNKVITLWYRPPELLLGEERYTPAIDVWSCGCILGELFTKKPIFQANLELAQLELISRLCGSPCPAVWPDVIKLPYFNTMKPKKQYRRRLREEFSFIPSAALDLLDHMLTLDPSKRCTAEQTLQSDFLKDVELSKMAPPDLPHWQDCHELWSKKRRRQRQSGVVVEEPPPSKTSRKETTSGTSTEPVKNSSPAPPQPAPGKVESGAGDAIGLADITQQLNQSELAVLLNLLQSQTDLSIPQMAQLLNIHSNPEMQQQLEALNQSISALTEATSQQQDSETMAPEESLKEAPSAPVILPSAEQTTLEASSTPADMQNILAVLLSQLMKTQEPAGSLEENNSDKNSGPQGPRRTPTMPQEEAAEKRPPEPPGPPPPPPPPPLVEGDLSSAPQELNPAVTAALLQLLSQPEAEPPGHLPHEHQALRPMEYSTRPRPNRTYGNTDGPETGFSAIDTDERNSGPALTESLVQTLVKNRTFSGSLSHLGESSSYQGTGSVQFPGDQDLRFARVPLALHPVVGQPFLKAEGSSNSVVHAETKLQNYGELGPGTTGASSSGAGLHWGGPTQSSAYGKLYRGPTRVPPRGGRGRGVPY
CDK12/Cyclin K, sequence (O75909 whole entry partner): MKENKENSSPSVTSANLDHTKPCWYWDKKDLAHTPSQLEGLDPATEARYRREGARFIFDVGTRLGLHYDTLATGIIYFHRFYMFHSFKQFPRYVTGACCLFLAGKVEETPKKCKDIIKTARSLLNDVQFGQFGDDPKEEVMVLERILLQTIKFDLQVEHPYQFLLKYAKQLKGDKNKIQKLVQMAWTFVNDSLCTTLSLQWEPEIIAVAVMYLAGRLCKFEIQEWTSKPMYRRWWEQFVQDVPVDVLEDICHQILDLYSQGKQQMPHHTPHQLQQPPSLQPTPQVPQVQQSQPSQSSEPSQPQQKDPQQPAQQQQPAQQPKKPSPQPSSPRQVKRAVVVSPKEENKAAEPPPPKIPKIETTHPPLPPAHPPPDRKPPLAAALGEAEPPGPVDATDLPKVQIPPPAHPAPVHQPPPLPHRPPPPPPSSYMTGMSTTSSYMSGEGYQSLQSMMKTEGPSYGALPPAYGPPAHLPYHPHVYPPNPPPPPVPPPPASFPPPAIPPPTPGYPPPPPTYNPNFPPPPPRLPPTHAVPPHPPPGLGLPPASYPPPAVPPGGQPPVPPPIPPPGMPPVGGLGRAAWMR

[16] = molecular target: CDK10/Cyclin L2 (Homo sapiens, UniProt Q15131); assay: NanoBRET live-cell target engagement, CDK10-NanoLuc/Cyclin L2 in HEK-293; settings: read-out: Inhibition at 10µM (%), CDK10/L2
[17] = molecular target: CDK19/Cyclin C (Homo sapiens, UniProt Q9BWU1); assay: NanoBRET live-cell target engagement, NanoLuc-CDK19/Cyclin C in HEK-293; settings: read-out: Inhibition at 10µM (%), CDK19/C
[18] = molecular target: CDK15/Cyclin Y (Homo sapiens, UniProt Q96Q40); assay: NanoBRET live-cell target engagement, NanoLuc-CDK15/Cyclin Y in HEK-293; format: binding; settings: CDK15/Y, read-out: Inhibition at 10µM (%)
[19] = molecular target: CDK9/Cyclin K (Homo sapiens, UniProt P50750); assay: NanoBRET live-cell target engagement, NanoLuc-CDK9/Cyclin K in HEK-293; format: binding; settings: CDK9/K, read-out: Inhibition at 10µM (%)

CDK8/Cyclin C, sequence (P49336 whole entry): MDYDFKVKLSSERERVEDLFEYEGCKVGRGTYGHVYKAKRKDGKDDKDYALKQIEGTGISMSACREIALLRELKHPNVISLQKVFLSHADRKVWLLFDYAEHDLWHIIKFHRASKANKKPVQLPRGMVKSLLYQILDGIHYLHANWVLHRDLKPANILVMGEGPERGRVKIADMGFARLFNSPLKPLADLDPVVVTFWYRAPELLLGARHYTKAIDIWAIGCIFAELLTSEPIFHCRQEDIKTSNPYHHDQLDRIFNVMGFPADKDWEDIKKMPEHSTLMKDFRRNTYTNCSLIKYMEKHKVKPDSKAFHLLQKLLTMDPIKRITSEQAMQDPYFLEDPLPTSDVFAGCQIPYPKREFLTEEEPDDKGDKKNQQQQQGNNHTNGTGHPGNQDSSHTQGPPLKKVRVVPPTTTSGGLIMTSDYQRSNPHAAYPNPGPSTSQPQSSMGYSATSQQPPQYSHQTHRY
CDK8/Cyclin C, sequence (P24863 whole entry partner): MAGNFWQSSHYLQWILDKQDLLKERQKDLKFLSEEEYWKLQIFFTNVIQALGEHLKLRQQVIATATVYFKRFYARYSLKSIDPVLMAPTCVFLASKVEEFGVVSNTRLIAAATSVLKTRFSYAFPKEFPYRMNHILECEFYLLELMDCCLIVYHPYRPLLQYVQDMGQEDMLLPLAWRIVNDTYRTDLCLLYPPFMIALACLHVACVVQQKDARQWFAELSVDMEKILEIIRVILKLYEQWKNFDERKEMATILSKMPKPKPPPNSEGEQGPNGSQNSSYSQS

CN1CCN(c2ccc(Nc3ncc4cc(C#N)c(=O)n(C5CCCC5)c4n3)cc2)CC1 [ON123300]
inhibition at 10 µM ([1]; average): 8.5%
inhibition at 10 µM ([1]; experiment 1): 6.2%
inhibition at 10 µM ([1]; experiment 2): 10.8%
inhibition at 10 µM ([2]; average): 12.6%
inhibition at 10 µM ([2]; experiment 1): 14.4%
inhibition at 10 µM ([2]; experiment 2): 10.7%
inhibition at 10 µM ([3]; average): 12.6%
inhibition at 10 µM ([3]; experiment 1): 15.7%
inhibition at 10 µM ([3]; experiment 2): 9.5%
IC50 ([4]; average (± SEM where n=3)): 120 ± 60 nM
inhibition at 10 µM ([4]; average): 45.4%
IC50 ([4]; experiment 1): 34 nM
inhibition at 10 µM ([4]; experiment 1): 56.3%
IC50 ([4]; experiment 2): 220 nM
inhibition at 10 µM ([4]; experiment 2): 34.4%
IC50 ([4]; experiment 3): 99 nM
inhibition at 10 µM ([5]; average): -15.1%
inhibition at 10 µM ([5]; experiment 1): -1%
inhibition at 10 µM ([5]; experiment 2): -29.2%
inhibition at 10 µM ([6]; average): 4.3%
inhibition at 10 µM ([6]; experiment 1): 8%
inhibition at 10 µM ([6]; experiment 2): 0.554%
inhibition at 10 µM ([7]; average): 36.8%
inhibition at 10 µM ([7]; experiment 1): 11.7%
inhibition at 10 µM ([7]; experiment 2): 61.9%
inhibition at 10 µM ([8]; experiment 1): 23.1%
inhibition at 10 µM ([8]; experiment 2): 26.8%
IC50 ([9]; average (± SEM where n=3)): 9 ± 3 nM
inhibition at 10 µM ([9]; average): 95.1%
IC50 ([9]; experiment 1): 6.9 nM
inhibition at 10 µM ([9]; experiment 1): 95.8%
IC50 ([9]; experiment 2): 5 nM
inhibition at 10 µM ([9]; experiment 2): 94.3%
IC50 ([9]; experiment 3): 15 nM
inhibition at 10 µM ([10]; average): 18.6%
inhibition at 10 µM ([10]; experiment 1): 20.1%
inhibition at 10 µM ([10]; experiment 2): 17.1%
IC50 ([11]; average (± SEM where n=3)): 143 ± 4 nM
inhibition at 10 µM ([11]; average): 28.4%
IC50 ([11]; experiment 1): 140 nM
inhibition at 10 µM ([11]; experiment 1): 28.2%
IC50 ([11]; experiment 2): 150 nM
inhibition at 10 µM ([11]; experiment 2): 28.5%
IC50 ([11]; experiment 3): 139 nM
inhibition at 10 µM ([12]; average): 24.7%
inhibition at 10 µM ([12]; experiment 1): 10.5%
inhibition at 10 µM ([12]; experiment 2): 38.9%
IC50 ([13]; average (± SEM where n=3)): 40 ± 4 nM
inhibition at 10 µM ([13]; average): 75.5%
IC50 ([13]; experiment 1): 32 nM
inhibition at 10 µM ([13]; experiment 1): 72.1%
IC50 ([13]; experiment 2): 43 nM
inhibition at 10 µM ([13]; experiment 2): 78.9%
IC50 ([13]; experiment 3): 44 nM
IC50 ([14]; average (± SEM where n=3)): 39 ± 8 nM
IC50 ([14]; experiment 1): 23 nM
inhibition at 10 µM ([14]; experiment 1): 70.3%
IC50 ([14]; experiment 2): 47 nM
inhibition at 10 µM ([14]; experiment 2): 78.8%
IC50 ([14]; experiment 3): 48 nM
inhibition at 10 µM ([15]; average): -3.9%
inhibition at 10 µM ([15]; experiment 1): -2.7%
inhibition at 10 µM ([15]; experiment 2): -5%
inhibition at 10 µM ([16]; average): 4.6%
inhibition at 10 µM ([16]; experiment 1): 8.8%
inhibition at 10 µM ([16]; experiment 2): 0.3%
inhibition at 10 µM ([17]; average): -0.3%
inhibition at 10 µM ([17]; experiment 1): 6.6%
inhibition at 10 µM ([17]; experiment 2): -7.2%
inhibition at 10 µM ([18]; average): 29.2%
inhibition at 10 µM ([18]; experiment 1): 36%
inhibition at 10 µM ([18]; experiment 2): 22.5%
inhibition at 10 µM ([19]; average): 34.2%
inhibition at 10 µM ([19]; experiment 1): 32%
inhibition at 10 µM ([19]; experiment 2): 36.4%
